For experiment [1], the system named is Faecalibacterium prausnitzii A2-165. Description: MIC by CLSI broth microdilution, type strain. The format is cell-based. Also on record: MIC: unit not given beside the values. To be noted: for MIC breakpoint class: test strain A2-165, breakpoints per antibiotic in c1-c3. A general note: Broth dilution looks for growth in wells or tubes with falling amounts of substance.

Experiment [2] relates to Faecalibacterium prausnitzii EB-FPDK11. In words: MIC by CLSI broth microdilution, isolated strain. The format is cell-based. To be noted: for resistance or sensitivity of the EB-FPDK11 strain to the antibiotic: Table 5; for MIC breakpoint class: test strain EB-FPDK11, breakpoints per antibiotic in c1-c3. Also on record: MIC: unit not given beside the values.
Experiment [3] has as its system Bacteroides thetiotaomicron ATCC 29741. Description: MIC by CLSI broth microdilution, QC strain. In kind it is cell-based. The following applies: ATCC29741.
Experiment [4] has as its system NC/Nga mice. In words: Ear edema caused by atopic dermatitis (thickness gauge). To be noted: at 6 weeks; normal group 0.55 mm, DNCB group 1.50 mm. The format is in vivo. Here is the method:
(§1) The Faecalibacterium prausnitzii A2-165 strain and Faecalibacterium prausnitzii EB-FPDK11 live bacteria used in this experiment were prepared at a concentration of 1×10^8 CFU/150 μl PBS (25% glycerol, 0.05% cysteine/PBS).
(§2) To observe atopic dermatitis lesions, 6-week-old NC/Nga mice (weighed about 21 to 25 g, SLC, Inc., Japan) were purchased from Daehan Biolink Co., Ltd. (Chungbuk, Korea). Animal tests were carried out in accordance with the Animal use and Care Protocol of the Institutional Animal Care and Use Committee (IACUC). The animals were acclimated for one week, and then raised for 9 weeks at a constant temperature of 22° C. and a relative humidity of 50 to 60% with a 12-hr light/12-hr dark cycle.
(§3) The backs of 6-week-old NC/Nga mice were shaved clean, and then left to stand for 24 hours so that fine wounds of the skin were healed. 1% 2,4-dinitrochlorobenzene (DNCB) solution (Sigma-Aldrich Korea) was applied to the back of each mouse twice a week for 3 weeks to induce an immune response, and then 0.5% DNCB solution was applied twice a week to induce contact dermatitis. […]
After completion of the experiment, the mice were sacrificed by anesthetizing with CO2, and then the degree of edema of both ears was measured by the velocity transformation technique using a thickness gauge (Digimatic thickness gauge, 547-301, Mitutoyo, Japan).

In experiment [5] the test system is NC/Nga mice. In words: Scratching frequency. To be noted: scratching for 10 minutes, day before end, compared to atopic dermatitis-induced group. In kind it is in vivo. Here is the method: as §1, §2, §3
The day before the end of the experiment, the frequency of scratching the affected area due to itching was measured. For measurement of the frequency of scratching, each mouse was acclimated for 10 minutes, and then the frequency of scratching for 10 minutes was measured using a counter.

Experiment [6] deals with NC/Nga mice. Description: Spleen weight. The format is in vivo. To be noted: after 6 weeks oral treatment, compared to atopic dermatitis-induced group (DNCB). As for the experimental part:
as §1, §2
(§4) The backs of 6-week-old NC/Nga mice were shaved clean, and then left to stand for 24 hours so that fine wounds of the skin were healed. […]
Thus, the weight of the spleen was measured to observe the effect of the composition for preventing atopic dermatitis on the immune organs of NC/Nga mice with atopic dermatitis induced by DNCB. […] The collected spleen tissue was washed with physiological saline and then dried, and the weights thereof were measured using a microbalance and the sizes thereof were visually observed.

Another experiment has as its system IgE. In words: Serum IgE concentration (ELISA). The format is in vivo, mice. The following applies: end of experiment, compared to DNCB group (1545.08 ng/ml). As for the experimental part: as §1, §2, §3
At the end of the experiment, each of the mice was anesthetized with CO2 and blood was collected by cardiac puncture. The collected blood was centrifuged at 10,000 rpm for 5 minutes to separate the serum, and the serum IgE concentration was measured. […]
(ELISA stands for enzyme-linked immunosorbent assay.)

In another experiment the test system is IL-6. In words: Serum cytokine concentration (ELISA), IL-6. The format is in vivo, mice. The following applies: mouse blood, compared to atopic dermatitis-induced group (DNCB). Here is the method: as §1, §2, §4
After induction of atopic dermatitis, the concentrations of cytokines related to Th1 and Th2 were measured to examine the immune response resulting from administration of the Faecalibacterium prausnitzii EB-FPDK11 strain of the present invention. […]
(§5) At the end of the experiment, the mice were anesthetized with CO2, and blood was collected by cardiac puncture. […] The concentrations of IL-4, IL-12, IFN-γ and IL-6 cytokines were measured using an ELISA kit (Invitrogen, CA, USA), and the results of the measurement are shown in FIGS. 16 and 17.

For the next experiment, the system named is Th2/Th1 cytokines. In words: Ratio of Th2/Th1 cytokines in serum. In kind it is in vivo, mice. Here is the method: as §1
To observe atopic dermatitis lesions, 6-week-old NC/Nga mice (weighed about 21 to 25 g, SLC, Inc., Japan) were purchased from Daehan Biolink Co., Ltd. (Chungbuk, Korea). Animal tests were carried out in accordance with the Animal use and Care Protocol of the Institutional Animal Care and Use Committee (IACUC). The animals were acclimated for one week, and then raised for 9 weeks at a constant temperature of 22° C. and a relative humidity of 50 to 60% with a 12-hr light/12-hr dark cycle. […]
as §5
From an immunological point of view, allergenic atopic dermatitis is a disease caused by an excessive imbalance between Th1 and Th2 immune responses. Thus, the cytokine concentrations measured as described above were expressed as the ratio of Th2/Th1 cytokines, and the results are shown in FIGS. 18 and 19.

Values after ≈ are worked out from the molar mass of the structure shown.

From patent US12622934B2, “Pharmaceutical composition for preventing or treating atopic disease containing Faecalibacterium prausnitzii strain” (ENTEROBIOME INC., priority 2020, dated 2026) come the findings set out here.

Regarding `O=C(N[C@H](CO)[C@H](O)c1ccc([N+](=O)[O-])cc1)C(Cl)Cl` [CHL, chloramphenicol], the MIC breakpoint class result in experiment [1] is “(R)”; in experiment [2], “(S)”. Further, the “resistance or sensitivity of the EB-FPDK11 strain to the antibiotic” value (“resistance or sensitivity” below) in [2] is on record as “sensitivity”.
Consider `CCC[C@@H]1C[C@@H](C(=O)N[C@@H]([C@H]2O[C@H](SC)[C@H](O)[C@@H](O)[C@H]2O)[C@H](C)Cl)N(C)C1` [CLI, clindamycin], for which the MIC breakpoint class result in experiment [1] and in experiment [2] was “(S)” each time.
For `CO/N=C(\C(=O)N[C@@H]1C(=O)N2C(C(=O)O)=CCS[C@H]12)c1csc(N)n1` [CTZ, ceftizoxime], in experiment [1], the MIC breakpoint class result is “(I)”. For the same compound, in [2], the “resistance or sensitivity” value is “resistance” and the MIC breakpoint class result is “(R)”.
A word on the MIC: it is the smallest concentration in the dilution series that meets the test's criterion for growth inhibition. For `C[C@@H](O)[C@H]1C(=O)N2C(C(=O)O)=C(S[C@@H]3CN[C@H](C(=O)N(C)C)C3)[C@H](C)[C@H]12` [MEM, meropenem], inhibition of growth in experiment [3] (MIC) required 0.5 mg/L (≈ 1.3 µM). Further, the MIC breakpoint class entry in experiment [1] and in experiment [2] was “(R)” throughout. For the same compound, the “resistance or sensitivity” value in [2] is given as “resistance”.
In the case of `Cc1ncc([N+](=O)[O-])n1CCO` [MTZ, metronidazole], the MIC breakpoint class entry in experiment [1] was “(S)”. For the same compound, in experiment [2], the “resistance or sensitivity” value is given as “sensitivity” and the MIC breakpoint class entry was “(S)”.
For `COc1c(N2C[C@@H]3CCCN[C@@H]3C2)c(F)cc2c(=O)c(C(=O)O)cn(C3CC3)c12` [MXF, moxifloxacin], the MIC breakpoint class result in experiment [1] and in experiment [2] was “(R)” in each case.
In the experiment with NC/Nga mice [4], `C[C@@H]1C[C@H]2[C@@H]3CCC4=CC(=O)C=C[C@]4(C)[C@@]3(F)[C@@H](O)C[C@]2(C)[C@@]1(O)C(=O)CO` [dexamethasone] displayed an ear edema of 1.00 mm. Moreover, in the experiment on NC/Nga mice [5], the “decrease in frequency of scratching” value was “about 59.4%”. Moreover, the “decrease in spleen weight” value in the experiment with NC/Nga mice [6] is given as 23.26%. Besides, the “decrease in serum IgE concentration” value with IgE was determined as 40.70%. Further, the “decrease in IL-6 concentration” value with IL-6 is 35.5%. In addition, the “decrease in IL-4/IL-12 ratio” value in the experiment with Th2/Th1 cytokines (compared to atopic dermatitis-induced group) is recorded as 23.7%. Also, in the experiment with Th2/Th1 cytokines (compared to atopic dermatitis-induced group (DNCB)), the “decrease in ratio of IL-6/IL-12” value worked out at 35.8%.
Turning to Piperacillin-tazobactam [PTZ], the MIC in experiment [1] (test strain A2-165, broth microdilution) was ≤256/4; in [2] (test strain EB-FPDK11, broth microdilution) it was ≤256/4. For the same compound, the MIC breakpoint class result in [1] and in experiment [2] was “(R)” in each case. Also, the “resistance or sensitivity” value in [2] is given as “resistance”.
